Experimental data published in patent US11793775B2, “Combined therapy for treating Alzheimer's disease” (MERRY LIFE BIOMEDICAL COMPANY, LTD., priority 2021, dated 2023).

Experiments:
[1] = Stability of TML-6 in TML-6 diet by LC/MS/MS; assay type: physicochemical; conditions: rodent chow supplemented with TML-6, LC/MS/MS
Description: TML-6, a small molecule curcumin analog, was used in this study. A regular rodent chow (Laboratory Rodent Diet 5001) supplemented with TML-6 at 100 mg/kg rodent chow was provided by Merry Life Biomedical company, Ltd. Content, purity, and stability of TML-6 in TML-6 diet at different storage conditions were analyzed using LC/MS/MS via service provided by the Development Center for Biotechnology, Taiwan. TML-6 diet was stored at 4° C. and was added to mouse cages twice a week for ad libitum feeding regimens. Daily uptake of TML-6 in APP/PS1 mice was estimated based on average consumption of rodent chow supplemented with TML-6 at 100 mg/kg chow for 24 hr or 8 days. Briefly, three APP/PS1 mice were housed individually in metabolic cages with an apparatus for measuring food-intake. Estimated TML-6 uptake per kg body weight per day was calculated by multiplying the daily consumption of TML-6 supplemented chow by the amount of TML-6 in the chow divided by body weight.

Aβ plaques = test: Aβ plaque deposition by Amylo-glo staining of brain sections; assay type: in vivo; conditions: cortex and hippocampus, APP/PS1 mice at 7 months, 4 months treatment, vs APP/PS1 controls
Description: (§1) For study of combination treatment, APP/PS1 mice were randomly assigned into four groups and were subjected to the treatments at 3 months of age (the early/prodromal stage of AD) for 4 months. Wt littermates (n=10) were also included for behavioral tests as a WT control group at 7 months. […] Body weight was recorded weekly. After 4 months of treatments, mice at age of 7 months were subjected to the following examinations.
(§2) Brain sections were fixed in 4% paraformaldehyde followed by cryoprotection with 30% sucrose in 1×PBS. Floating sections at 30 μm thickness were stored in 1×PBS with 0.05% sodium azide at 4° C. until use. Amylo-Glo RTD™ (TR-400-AG, Biosensis, Thebarton, Australia) was used for detection of amyloid-β (Aβ) plaques in the brain sections per manufacturer's instruction. The sections were mounted on the slide covered with mounting medium (Vectashield H-1000, Vector Laborotories, Burlingame, Calif., USA). Images were acquired using Leica confocal microscopy imaging system. Numbers of Aβ deposits and fluorescent area positive for AP deposits were normalized with total area of the section using MetaMorph imaging software. Quantification for sizes of AP deposits larger or smaller than 500 μm^2 were presented. […]

APP/PS1 mice [2] = test: Nesting test; assay type: in vivo
Description: as §1
Before the test for nesting, mice were individually housed for 5 hr. A nestlet pressed-cotton square (Ancare) was then placed into each cage 1 hour before the start of the dark cycle. Pictures of a nestlet were taken at indicated time points, and the entire test underwent for 52 hr. Nest construction was scored by two persons unaware of treatments using a 5-point scaling system as described previously (Yeh et al. 2015). Briefly, a score of 1 indicates a >90% intact nestlet, whereas a score of 5 indicates a <10% intact nestlet and the construction of a nest with an obvious crater.

APP/PS1 mice [3] = test: Morris water maze; assay type: in vivo; conditions: training course, compared with wt
Description: as §1
To evaluate spatial learning and memory deficits in APP/PS1 mice, a circular pool of 120 cm in diameter and 40 cm in height was used. The pool was filled with milk at 22-24 ° C. to approximately 20 cm in deep. A hidden platform was submerged 1 cm below the surface of milk. All experimental mice were transferred to the behavior testing room 30 min prior to the water maze to habituate to the test environment. During the training course, mice received 3 trials per day with a 60-minute inter-trial interval for 6 days. Probe test without the hidden platform was performed at day 7 and mice were allowed to investigate for 60 seconds. An overhead camera and a computerized video imaging analysis system were used to analyze the swimming paths and the escape latency.

microglia [4] = test: Microglial Aβ phagocytosis by co-localization of Iba1 and Aβ plaques; assay type: in vivo; conditions: brain of APP/PS1 mice, FIG. 5A
Description: as §1
as §2, with “Numbers of Aβ deposits and fluorescent area positive for AP deposits were normalized with total area of the section using MetaMorph imaging software.” left out
Since microglia are primary immune cells in the brain responsible for Aβ clearance, treatment effects on microglial Aβ phagocytosis was evaluated by co-localization of microglia and Aβ plaques using confocal microscopy.

microglia [5] = test: Morphological analyses of microglia (neurite outgrowth analyses); assay type: in vivo, APP/PS1 mice; conditions: total length of cell-associated skeletonized outgrowth, FIG. 5G

CCN(CC)C(=O)CC(C)(C(=O)/C=C/c1ccc(OC)c(OC)c1)C(=O)/C=C/c1ccc(OC)c(OC)c1 [TML-6]
amount of TML-6 in rodent chow at various storage conditions [1]: stable
Aβ depositions (Amylo-glo staining) (Aβ plaques): lower levels of Aβ depositions
nesting scores (APP/PS1 mice [2]; two-way ANOVA, vs APP/PS1 controls, FIG. 4A): significant improvements
slopes of nesting scores, p (linear regression) (APP/PS1 mice [2]; vs APP/PS1 controls, FIG. 4B): 0.07173
slopes of nesting scores, p (linear regression) (APP/PS1 mice [2]; vs wt): 0.1648
latency of finding the hidden platform (APP/PS1 mice [3]): comparable to that of wt
microglial Aβ phagocytosis (co-localization of Iba1 and Aβ plaques) (microglia [4]): not affected
total outgrowth of microglia (microglia [5]): increased
